Results on 31 compounds are retold here after ChEMBL document CHEMBL2062464, “Allosteric modulation of seven transmembrane spanning receptors: theory, practice, and opportunities for central nervous system drug discovery” (J Med Chem, 2012).

One may read the pKb as the Kb on a negative log10 scale, so that one unit is a factor of ten. What is called EC50 is the concentration needed to bring the measured effect to its halfway point. Low values mean an effect from little substance, high ones a need for much substance. What is called IC50 is the concentration that gives 50% inhibition. A higher IC50 goes with lower potency. Usually Emax stands for the maximal effect, on the per cent scale that the assay sets.

Assay [1] concerns the target T1, Adenosine receptor A1 (Homo sapiens) (UniProt P30542).
T1 sequence (whole entry): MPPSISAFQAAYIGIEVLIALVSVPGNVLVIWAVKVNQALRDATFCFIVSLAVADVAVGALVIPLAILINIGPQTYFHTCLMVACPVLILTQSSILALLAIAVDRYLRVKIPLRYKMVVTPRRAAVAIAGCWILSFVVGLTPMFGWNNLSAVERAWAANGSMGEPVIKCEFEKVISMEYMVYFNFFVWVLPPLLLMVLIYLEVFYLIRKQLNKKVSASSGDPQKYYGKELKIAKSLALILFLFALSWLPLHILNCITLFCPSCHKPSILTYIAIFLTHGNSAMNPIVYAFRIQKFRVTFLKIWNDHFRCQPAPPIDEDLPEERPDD
The experiment in a line: Allosteric modulation at adenosine A1 receptor assessed as receptor mediated ERK1/2 phosphorylation.

The target in assay [2] is T2, Muscarinic acetylcholine receptor M1 (Homo sapiens, UniProt P11229).
T2 sequence (P11229 whole entry): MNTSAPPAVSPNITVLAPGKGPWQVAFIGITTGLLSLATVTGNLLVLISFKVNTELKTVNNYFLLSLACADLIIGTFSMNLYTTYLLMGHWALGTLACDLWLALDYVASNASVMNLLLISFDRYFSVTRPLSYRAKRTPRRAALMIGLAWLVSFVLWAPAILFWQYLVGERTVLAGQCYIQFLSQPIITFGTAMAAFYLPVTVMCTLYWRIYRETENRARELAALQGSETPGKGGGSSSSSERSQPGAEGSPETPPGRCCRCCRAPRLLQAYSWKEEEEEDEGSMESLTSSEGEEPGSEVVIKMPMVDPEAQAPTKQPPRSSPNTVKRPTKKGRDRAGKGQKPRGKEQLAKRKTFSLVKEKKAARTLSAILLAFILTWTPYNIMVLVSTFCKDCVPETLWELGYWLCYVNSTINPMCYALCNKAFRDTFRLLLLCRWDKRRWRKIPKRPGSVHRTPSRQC
Briefly: Positive allosteric modulation activity at muscarinic M1 receptor.

Assay [3] addresses T3, Metabotropic glutamate receptor 5 (Homo sapiens, UniProt P41594). The experiment in a line: Negative allosteric modulation activity at mGlu5 receptor.
Target sequence in this assay (P41594 whole entry): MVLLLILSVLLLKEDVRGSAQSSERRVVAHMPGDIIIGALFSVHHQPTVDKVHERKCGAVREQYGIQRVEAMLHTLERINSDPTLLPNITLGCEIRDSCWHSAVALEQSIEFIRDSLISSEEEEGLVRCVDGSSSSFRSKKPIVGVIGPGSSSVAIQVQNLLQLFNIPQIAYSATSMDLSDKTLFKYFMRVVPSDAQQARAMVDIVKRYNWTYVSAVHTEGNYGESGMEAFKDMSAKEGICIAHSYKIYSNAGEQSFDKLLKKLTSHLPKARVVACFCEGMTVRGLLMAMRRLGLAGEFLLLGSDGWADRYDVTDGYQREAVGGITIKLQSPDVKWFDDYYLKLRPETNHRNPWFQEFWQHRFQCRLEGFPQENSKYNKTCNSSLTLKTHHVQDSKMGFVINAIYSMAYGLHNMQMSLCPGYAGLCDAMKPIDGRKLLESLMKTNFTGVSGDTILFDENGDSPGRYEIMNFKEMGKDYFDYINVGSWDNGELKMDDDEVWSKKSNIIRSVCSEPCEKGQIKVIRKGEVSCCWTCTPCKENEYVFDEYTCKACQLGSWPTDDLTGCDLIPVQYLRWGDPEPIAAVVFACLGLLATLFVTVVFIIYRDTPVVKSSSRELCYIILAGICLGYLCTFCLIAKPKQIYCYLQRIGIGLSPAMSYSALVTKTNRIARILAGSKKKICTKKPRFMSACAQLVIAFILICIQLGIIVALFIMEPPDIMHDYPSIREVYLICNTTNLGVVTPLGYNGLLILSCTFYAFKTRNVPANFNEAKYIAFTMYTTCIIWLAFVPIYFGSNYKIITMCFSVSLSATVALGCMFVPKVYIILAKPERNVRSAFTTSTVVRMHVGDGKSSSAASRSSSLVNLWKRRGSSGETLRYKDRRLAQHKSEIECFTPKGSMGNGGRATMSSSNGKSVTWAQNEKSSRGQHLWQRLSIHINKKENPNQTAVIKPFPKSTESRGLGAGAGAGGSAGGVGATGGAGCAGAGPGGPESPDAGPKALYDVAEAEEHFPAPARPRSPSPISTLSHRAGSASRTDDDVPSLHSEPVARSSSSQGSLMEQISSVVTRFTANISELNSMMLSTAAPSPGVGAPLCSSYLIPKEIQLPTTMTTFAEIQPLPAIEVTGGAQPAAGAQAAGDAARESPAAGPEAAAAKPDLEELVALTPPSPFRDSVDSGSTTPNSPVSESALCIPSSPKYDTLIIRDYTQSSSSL
In assay [4] the target is Muscarinic acetylcholine receptor M3 (Homo sapiens) (UniProt P20309). Briefly: Positive allosteric modulation activity at muscarinic M3 receptor relative to acetylcholine.
For assay [5], the target named is T4, Muscarinic acetylcholine receptor M5 (Homo sapiens) (UniProt P08912).
T4 sequence (whole entry): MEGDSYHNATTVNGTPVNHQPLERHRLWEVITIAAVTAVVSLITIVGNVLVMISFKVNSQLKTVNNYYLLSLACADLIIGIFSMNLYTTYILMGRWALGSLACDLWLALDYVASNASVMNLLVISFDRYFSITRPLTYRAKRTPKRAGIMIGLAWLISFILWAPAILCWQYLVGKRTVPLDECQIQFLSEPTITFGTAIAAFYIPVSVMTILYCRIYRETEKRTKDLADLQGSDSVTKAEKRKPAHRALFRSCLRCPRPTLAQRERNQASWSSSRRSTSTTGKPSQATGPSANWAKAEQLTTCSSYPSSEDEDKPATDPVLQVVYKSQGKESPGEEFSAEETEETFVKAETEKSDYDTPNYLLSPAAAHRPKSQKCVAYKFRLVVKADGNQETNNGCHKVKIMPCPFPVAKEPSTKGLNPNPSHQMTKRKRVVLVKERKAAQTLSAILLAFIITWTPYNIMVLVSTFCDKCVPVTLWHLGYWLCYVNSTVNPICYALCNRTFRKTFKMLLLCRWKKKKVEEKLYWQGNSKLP
The experiment in a line: Positive allosteric modulation activity at muscarinic M5 receptor relative to acetylcholine.

Assay [6] concerns the target T5, Muscarinic acetylcholine receptor M1 (Homo sapiens) (UniProt P11229).
T5 sequence (whole entry): T2 sequence (P11229 whole entry)
The experiment in a line: Positive allosteric modulation activity at muscarinic M1 receptor relative to acetylcholine.

The target in assay [7] is Metabotropic glutamate receptor 8 (Homo sapiens, UniProt O00222). The experiment in a line: Positive allosteric modulation activity at mGlu8 receptor.
Assay [8] concerns the target Metabotropic glutamate receptor 3 (Homo sapiens, UniProt Q14832). The experiment in a line: Positive allosteric modulation activity at mGlu3 receptor.
Assay [9] addresses Metabotropic glutamate receptor 1 (Homo sapiens, UniProt Q13255). The experiment in a line: Positive allosteric modulation activity at mGlu1 receptor.
Assay [10] has as its target Metabotropic glutamate receptor 6 (Homo sapiens, UniProt O15303). Briefly: Positive allosteric modulation activity at mGlu6 receptor.
In assay [11] the target is Metabotropic glutamate receptor 2 (Homo sapiens, UniProt Q14416). The experiment in a line: Positive allosteric modulation activity at mGlu2 receptor.
Assay [12] addresses Metabotropic glutamate receptor 7 (Homo sapiens, UniProt Q14831). Briefly: Positive allosteric modulation activity at mGlu7 receptor.
In assay [13] the target is T3, Metabotropic glutamate receptor 5. Briefly: Positive allosteric modulation activity at mGlu5 receptor.
Target sequence in this assay (P41594 whole entry): as the sequence (P41594 whole entry) above
Assay [14] addresses Metabotropic glutamate receptor 4 (Homo sapiens) (UniProt Q14833). The experiment in a line: Positive allosteric modulation activity at mGlu4 receptor relative to glutamate.
Assay [15] addresses T3, Metabotropic glutamate receptor 5. Briefly: Positive allosteric modulation activity at mGlu5 receptor relative to glutamate.
Target sequence in this assay (P41594 21-1212 limits assumed): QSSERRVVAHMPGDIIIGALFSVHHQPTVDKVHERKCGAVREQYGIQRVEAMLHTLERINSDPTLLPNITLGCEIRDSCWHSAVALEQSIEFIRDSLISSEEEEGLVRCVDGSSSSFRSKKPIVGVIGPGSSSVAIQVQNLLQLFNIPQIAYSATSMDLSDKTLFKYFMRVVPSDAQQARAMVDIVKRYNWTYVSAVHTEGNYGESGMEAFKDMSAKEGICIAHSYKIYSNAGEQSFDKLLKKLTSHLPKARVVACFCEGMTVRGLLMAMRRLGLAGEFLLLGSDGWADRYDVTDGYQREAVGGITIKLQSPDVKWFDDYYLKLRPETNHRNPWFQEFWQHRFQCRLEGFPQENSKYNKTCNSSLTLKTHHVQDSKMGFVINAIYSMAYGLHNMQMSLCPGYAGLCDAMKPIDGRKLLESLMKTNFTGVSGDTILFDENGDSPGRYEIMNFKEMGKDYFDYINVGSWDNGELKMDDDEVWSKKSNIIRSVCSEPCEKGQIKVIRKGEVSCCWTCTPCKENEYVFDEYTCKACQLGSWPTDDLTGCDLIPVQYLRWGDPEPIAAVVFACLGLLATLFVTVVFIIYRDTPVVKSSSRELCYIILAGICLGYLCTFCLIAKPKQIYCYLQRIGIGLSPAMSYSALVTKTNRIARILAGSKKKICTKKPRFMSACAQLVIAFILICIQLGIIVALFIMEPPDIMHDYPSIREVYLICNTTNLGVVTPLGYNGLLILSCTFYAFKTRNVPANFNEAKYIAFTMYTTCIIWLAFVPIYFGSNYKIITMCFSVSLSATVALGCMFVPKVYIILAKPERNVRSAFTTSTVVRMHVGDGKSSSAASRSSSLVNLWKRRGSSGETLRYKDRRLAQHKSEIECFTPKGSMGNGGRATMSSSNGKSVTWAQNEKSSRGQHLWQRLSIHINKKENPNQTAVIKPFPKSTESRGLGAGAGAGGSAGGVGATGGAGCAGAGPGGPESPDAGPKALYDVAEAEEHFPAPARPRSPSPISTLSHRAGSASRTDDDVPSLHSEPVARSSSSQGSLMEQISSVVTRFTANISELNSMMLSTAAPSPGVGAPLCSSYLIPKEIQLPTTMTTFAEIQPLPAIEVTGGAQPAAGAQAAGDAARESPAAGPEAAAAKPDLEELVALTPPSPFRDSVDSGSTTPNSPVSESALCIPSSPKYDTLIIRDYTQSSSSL

The structures appear in SMILES notation.

Chain of Metabotropic glutamate receptor 4 (Homo sapiens) (Q14833 whole entry): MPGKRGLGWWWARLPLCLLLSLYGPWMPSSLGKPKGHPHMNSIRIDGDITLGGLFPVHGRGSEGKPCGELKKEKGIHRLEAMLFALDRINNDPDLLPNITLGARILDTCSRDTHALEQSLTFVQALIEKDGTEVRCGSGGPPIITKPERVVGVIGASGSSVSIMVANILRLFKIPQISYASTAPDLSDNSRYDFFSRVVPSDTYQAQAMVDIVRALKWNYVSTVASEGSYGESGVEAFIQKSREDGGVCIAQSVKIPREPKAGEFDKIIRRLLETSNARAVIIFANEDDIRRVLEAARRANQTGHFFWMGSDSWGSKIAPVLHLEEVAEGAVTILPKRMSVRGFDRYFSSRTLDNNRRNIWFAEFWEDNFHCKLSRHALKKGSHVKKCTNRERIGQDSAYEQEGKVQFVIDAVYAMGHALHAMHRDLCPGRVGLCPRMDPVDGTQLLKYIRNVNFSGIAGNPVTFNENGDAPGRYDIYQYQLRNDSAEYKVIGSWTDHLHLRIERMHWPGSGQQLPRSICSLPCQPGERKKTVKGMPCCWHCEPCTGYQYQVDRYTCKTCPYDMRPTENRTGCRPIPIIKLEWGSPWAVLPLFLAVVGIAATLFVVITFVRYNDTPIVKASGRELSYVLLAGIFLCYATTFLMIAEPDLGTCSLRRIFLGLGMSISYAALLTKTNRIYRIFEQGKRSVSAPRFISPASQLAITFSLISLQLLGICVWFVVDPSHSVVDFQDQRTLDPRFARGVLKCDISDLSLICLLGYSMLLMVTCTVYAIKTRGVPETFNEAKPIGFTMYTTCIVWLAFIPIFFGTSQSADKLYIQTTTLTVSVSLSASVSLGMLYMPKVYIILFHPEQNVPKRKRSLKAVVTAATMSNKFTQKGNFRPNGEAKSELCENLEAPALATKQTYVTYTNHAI
Chain of Metabotropic glutamate receptor 7 (Q14831 whole entry): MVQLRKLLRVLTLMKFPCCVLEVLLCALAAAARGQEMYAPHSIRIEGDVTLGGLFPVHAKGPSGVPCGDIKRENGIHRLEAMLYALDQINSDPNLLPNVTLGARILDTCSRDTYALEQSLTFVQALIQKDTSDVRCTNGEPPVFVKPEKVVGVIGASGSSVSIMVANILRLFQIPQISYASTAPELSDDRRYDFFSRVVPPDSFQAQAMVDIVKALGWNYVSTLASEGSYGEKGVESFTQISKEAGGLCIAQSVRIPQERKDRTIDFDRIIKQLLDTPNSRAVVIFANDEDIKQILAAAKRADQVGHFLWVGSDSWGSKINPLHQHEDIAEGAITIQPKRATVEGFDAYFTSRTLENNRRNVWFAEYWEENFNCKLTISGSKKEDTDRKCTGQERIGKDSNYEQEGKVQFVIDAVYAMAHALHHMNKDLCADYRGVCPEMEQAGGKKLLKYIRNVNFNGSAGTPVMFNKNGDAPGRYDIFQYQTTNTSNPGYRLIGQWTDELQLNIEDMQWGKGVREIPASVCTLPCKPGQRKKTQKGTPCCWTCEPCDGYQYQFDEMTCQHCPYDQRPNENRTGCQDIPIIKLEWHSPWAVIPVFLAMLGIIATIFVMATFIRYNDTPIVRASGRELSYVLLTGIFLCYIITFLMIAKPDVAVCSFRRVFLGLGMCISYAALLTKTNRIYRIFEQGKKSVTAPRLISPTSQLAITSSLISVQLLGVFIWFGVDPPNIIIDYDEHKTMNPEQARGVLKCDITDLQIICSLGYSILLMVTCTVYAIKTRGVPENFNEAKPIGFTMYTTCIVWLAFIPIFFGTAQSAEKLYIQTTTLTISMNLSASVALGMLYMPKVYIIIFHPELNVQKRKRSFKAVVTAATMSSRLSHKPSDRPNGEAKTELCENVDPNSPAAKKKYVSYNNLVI
Chain of Muscarinic acetylcholine receptor M3 (Homo sapiens) (P20309 whole entry, looked up): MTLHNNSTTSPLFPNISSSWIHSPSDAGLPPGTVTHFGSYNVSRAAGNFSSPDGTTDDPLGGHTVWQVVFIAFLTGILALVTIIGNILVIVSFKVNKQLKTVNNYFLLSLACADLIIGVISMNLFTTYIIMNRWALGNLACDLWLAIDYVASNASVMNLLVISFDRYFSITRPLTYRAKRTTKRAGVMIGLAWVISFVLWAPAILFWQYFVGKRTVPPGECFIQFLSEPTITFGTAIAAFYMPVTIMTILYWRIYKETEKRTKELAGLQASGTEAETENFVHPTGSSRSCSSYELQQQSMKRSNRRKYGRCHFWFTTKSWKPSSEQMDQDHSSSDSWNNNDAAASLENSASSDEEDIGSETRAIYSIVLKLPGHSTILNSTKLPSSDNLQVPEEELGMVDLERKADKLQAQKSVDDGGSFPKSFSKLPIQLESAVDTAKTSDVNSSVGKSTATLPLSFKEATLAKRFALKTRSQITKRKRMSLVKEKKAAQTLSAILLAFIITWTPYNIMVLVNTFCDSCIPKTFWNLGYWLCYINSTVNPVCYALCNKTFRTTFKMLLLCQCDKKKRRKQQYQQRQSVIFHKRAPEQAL

For `CCOC(=O)c1c(N)sc2c1CCN(C(=O)OC(C)(C)C)CC2`, in assay [1], the pKb stood at 6.07.

Regarding `O=C(O)c1cn(Cc2ccc(-c3ccccc3)cc2)c2c(F)cccc2c1=O`, the EC50 in assay [2] was determined as 380 nM.

Turning to `CCOC(=O)c1nn(-c2cccc(Cl)c2)c(=O)c2c(N)scc12`, the pKb in [1] was 8.3.

In turn, `Cc1cccc(C#Cc2cncnc2)c1` came in with an IC50 in assay [3] of 7.5 nM.

For `Nc1sc2c(c1C(=O)c1ccc(Cl)cc1)CC1C=CC=CC1C2` (stereo unspecified), the pKb in assay [1] is 6.01.

On to `Cn1cc(-c2ccc(Cn3cc(C(=O)O)c(=O)c4c(F)cccc43)c(F)c2)cn1`, for which the midpoint of the response in [2], the EC50, lay at 41 nM.

Take `O=C1C(=O)N(Cc2ccc(Br)cc2)c2ccccc21`: the Emax in assay [4] was 66%; in [5], 74%; in [6], 82%.

Take `Cc1ccc(C(=O)c2c(N)sc3c2CCCC3)cc1`: the pKb in assay [1] was determined as 5.1.

Regarding `Nc1sc(-c2cncnc2)cc1C(=O)c1ccccc1`, the pKb in [1] was 5.82.

With `Nc1scc(-c2cc(C(F)(F)F)cc(C(F)(F)F)c2)c1C(=O)c1ccccc1`, the pKb in [1] was determined as 5.22.

`Nc1sc2c(c1C(=O)c1ccc(Cl)cc1)CC1C=C(C(F)(F)F)C=CC1C2` (stereo unspecified): in [1], the pKb amounted to 5.12.

As to `Cn1cc(-c2ccc(CN3C(=O)C(=O)c4ccccc43)c(F)c2)cn1`, the Emax in [6] is 65%.

For the compound `O=C(O)c1cn(Cc2ccc(-c3ccccc3)cc2)c2c(F)ccc(F)c2c1=O`, the midpoint of the response in [2], the EC50, lay at 270 nM.

The compound `O=C1C(=O)N(Cc2ccc(Oc3ccccc3)cc2)c2ccc(OC(F)(F)F)cc21` came in with an Emax in assay [5] of 75%.

Consider `Nc1sc2c(c1C(=O)c1ccc(Cl)cc1)CC1C=CC(C(F)(F)F)=CC1C2` (stereo unspecified), for which the pKb in assay [1] is 5.11.

Regarding `C(#Cc1cncnc1)c1ccccc1`, the IC50 in [3] was found to be 486 nM.

As to `Nc1sc2c(c1C(=O)c1ccc(Cl)cc1)CCCC2`, in [1], the pKb was determined as 5.49.

In the case of `O=C(Nc1ccccn1)[C@]12C[C@H]1/C(=N\O)c1ccccc1O2`, the EC50 in assay [7], in assay [8], in [9], in [10], in assay [11] and in assay [12] was greater than 30000 nM each time. In assay [13], this compound came in with an EC50 greater than 30000 nM. The Emax in assay [14] is 121%.

Turning to `Cc1ccc(C#Cc2cncnc2)cc1`, the EC50 in assay [13] was determined as 3300 nM. In [15], this compound returned an Emax of 99%.

As for `Nc1sc(-c2cncnc2)c2c1C(=O)c1ccccc1-2`, in assay [1], the pKb turned out to be 6.67.

Regarding `Nc1scc(-c2cccc(F)c2)c1C(=O)c1ccc(Cl)cc1`, in [1], the pKb was 5.88.

With `CNc1ncc(C#Cc2ccccc2)cn1`, the Emax in [15] came out at 128%.

On to `Nc1scc(-c2cccc(C(F)(F)F)c2)c1C(=O)c1ccc(Cl)cc1`, for which the negative logarithm of the Kb (pKb) in assay [1] was determined as 5.74.

As to `Nc1sc2c(c1C(=O)c1ccccc1)CCCCCC2`, in assay [1], the pKb came to 5.08.

As to `Nc1scc(-c2cccc(C(F)(F)F)c2)c1C(=O)c1ccccc1`, the pKb in assay [1] is 6.37.

With `Nc1scc(-c2cc(C(F)(F)F)cc(C(F)(F)F)c2)c1C(=O)c1ccc(Cl)cc1`, the pKb in assay [1] worked out at 5.46.

Turning to `O=C(O)c1cn(Cc2ccc(-c3ccccc3)cc2)c2cccc(F)c2c1=O`, in assay [2], the 50% effective concentration (EC50) was determined as 84 nM.

For `CC(C)(C)OC(=O)N1CCc2sc(N)c(C(=O)c3ccc(Cl)cc3)c2CC1`, the pKb in assay [1] turned out to be 5.23.

For `COc1ccc(CN2C(=O)C(=O)c3cc(OC(F)(F)F)ccc32)cc1`, the maximal effect (Emax) in [5] was determined as 91%.

Turning to `Nc1scc(-c2ccccc2F)c1C(=O)c1ccc(Cl)cc1`, the pKb in [1] came out at 5.1.

Consider `Nc1sc(-c2ccccc2)cc1C(=O)c1ccccc1`, for which, in [1], the pKb amounted to 6.36.
